Data on five molecules can be found in patent US11149028B2, “Methods for treating melanoma using small molecules” (NOVA SOUTHEASTERN UNIVERSITY, priority 2016, dated 2021).

In general, IC50 refers to the point on the concentration scale where inhibition reaches its midpoint.

One experiment deals with HSP90. Conditions: human, in vivo; cited from earlier work.
The test system of experiment [1] is LC3-II and beclin-1 in WM266-4 cells. Briefly: Western blotting for LC3 and beclin-1, WM266-4. The experiment is classed as cell-based, human. On the procedure:
1×10^6 of WM266-4 or M14 cells were seeded in 3 mL of E-MEM or RPMI-1640 medium supplemented with 10% FBS and 1% penicillin/streptomycin in 6 cm plates. […] After washing with TBST, the membranes were treated with chemilumiscent horseradish peroxidase detection reagent (Thermo Scientific, Cat #32209) and exposed to autoradiography film (Denville Scientific, Inc., Metuchen, N.J., USA, cat #E3018). ImageJ software (NIH, Bethesda, Md.) was used to quantify the intensity of proteins bands. The protein bands were normalized against loading controls (β-actin) and expressed as a fold of an untreated control.
Background: In western blotting, separated proteins are transferred to a membrane and probed.

In a further experiment the test system is hnRNP H2. Briefly: Pull-down with biotinylated analogs, western blot. It is filed as binding, human. Conditions: WM266-4 lysates. On the procedure:
(§1) WM-266-4 and M14 cells were sonicated in RIPA lysis buffer containing added protease inhibitors. Affinity beads were prepared by addition of the 0.3 mg biotinylated probes to the 50 μL of streptavidin agarose resin, which was washed three times with the lysis buffer. Following incubation at 4° C. for 1 h, the obtained affinity beads complexed with biotinylated compounds were washed three times with lysis buffer to remove any unbound materials. The cell lysates (1 mg protein content) were then added to the probe-bound beads, and samples were incubated at 4° C. for 1 h and overnight on a rotator. Following 5 washes with lysis buffer, the samples were subjected to SDS-PAGE. The gels were stained overnight with colloidal blue (Invitrogen). Gel bands of interest were excised, reduced, carbidomethylated, dehydrated, and digested with Trypsin Gold (Promega) as per manufacturers' instructions. Following digestion, peptides were extracted, all fractions were combined, and the volume was reduced in a SpeedVac to near dryness, and re-suspended to 20 μL using 95% ddH2O/5% ACN/0.1% formic acid (FA) prior to analysis by 1D reversed-phase LC-nESI-MS2 (as outlined below) (Ludwig, M. R. et al. Surveying the serologic proteome in a tissue-specific kras(G12D) knockin mouse model of pancreatic cancer. Proteomics 16, 516-531, doi:10.1002/pmic.201500133 2016).
(§2) WM-266-4 cells were sonicated in RIPA lysis buffer containing protease inhibitors. Affinity beads were prepared by addition of the biotinylated probes (0.3 mg) to the streptavidin agarose resin (50 μL), which was first washed three times with the lysis buffer. […] The protein extract (1 mg) was then added to the probe-bound beads, and samples were incubated at 4° C. overnight. Following 5 washes with lysis buffer, the protein isolates were subjected to SDS-PAGE followed by transfer to nitrocellulose membrane. hnRNP H2 was detected using rabbit polyclonal antibody (Abgent #: AP13497b; 1:3,000, in 2% milk overnight), DDX1 monoclonal antibody (Santa Cruz #sc-271393, 1:1,000 in 2% BSA overnight), or hnRNP B1/A2 monoclonal antibody (Santa Cruz #SC-32316, 1:1,000 in 2% BSA overnight). After washing with TBST, the membranes were treated with chemilumiscent horseradish peroxidase detection reagent (Thermo Scientific, Cat #32209) and exposed to autoradiography film (Denville Scientific, Inc., Metuchen, N.J., USA, cat #E3018). ImageJ software (NIH, Bethesda, Md.) was used to quantify the intensity of proteins bands. The protein bands were normalized against loading controls.

A further experiment relates to hnRNP A2/B1. Briefly: Pull-down with biotinylated analogs, western blot. It is filed as binding, human. Conditions: WM266-4 lysates. The procedure: as §1, §2
Experiment [2] deals with cleaved lamin A/C in WM266-4 cells. Briefly: Western blotting for lamin A/C cleavage. It is filed as cell-based, human. Conditions: for cleaved lamin A/C level: 100 μM, 24 h. The procedure: 1×10^6 of WM266-4 or M14 cells were seeded in 3 mL of E-MEM or RPMI-1640 medium supplemented with 10% FBS and 1% penicillin/streptomycin in 6 cm plates. […] After washing with TBST, the membranes were treated with chemilumiscent horseradish peroxidase detection reagent (Thermo Scientific, Cat #32209) and exposed to autoradiography film (Denville Scientific, Inc., Metuchen, N.J., USA, cat #E3018). ImageJ software (NIH, Bethesda, Md.) was used to quantify the intensity of proteins bands. The protein bands were normalized against loading controls.

Experiment [3] has as its system WM266-4 cells. Briefly: CellTiter-Glo cell viability assay, WM266-4 (including rescue assays). It is filed as cell-based, human. To be noted: 72 h; for IC50: WM 266-4, 72 h. On the procedure: Cells were plated in 384-well plates in 8 μL of media. Test compounds and dabrafenib (pharmacological assay control) were prepared as 10-point, 1:3 serial dilutions starting at 300 μM, then added to the cells (4 μL per well) using the Biomek Plates were incubated for 72 h at 37° C., 5% CO2 and 95% relative humidity. After incubation, 4 μL of CellTiter-Glo® (Promega cat #: G7570) were added to each well, and incubated for 15 min at room temperature. Luminescence was recorded using a Biotek Synergy H4 multimode microplate reader. Viability was expressed as a percentage relative to wells containing media only (0%) and wells containing cells treated with DMSO only (100%). Three parameters were calculated on a per-plate basis: (a) the signal-to-background ratio (SB); (b) the coefficient for variation [CV; CV=(standard deviation/mean)×100)] for all compound test wells; and (c) the Z′-factor (18). The IC50 value of the pharmacological control (dabrafenib, LC Laboratories #G-4408) was also calculated to ascertain the assay robustness. In case of viability rescue assays, cells were pre-treated with caspase, calpain, and autophagy inhibitors for 1-3 h before addition of test compounds. Time course viability assay was done with luminescence measurements performed at 4, 24, 48, and 72 h.
(Cellular ATP, detected with luciferase, serves as a proxy for viable cell number.)

For experiment [4], the system named is WM266-4 cells. Briefly: Cell staining for autophagy (autophagosome dye). The experiment is classed as cell-based, human. Conditions: dansylated analog, 25 μM. On the procedure: WM266-4 cells were seeded at 10,000 cells/well in 0.1 mL of E-MEM medium supplemented with 10% FBS and 1% penicillin/streptomycin in 96 well plates (Greiner Bio-One CellStar cat #655180) and allowed to adhere overnight. After overnight incubation 100 μM 2155-14, 2155-18, 50 nM hnRNPH2 siRNA or 25 μM 2476-67.2 were added and incubated for various length of time. Cells were rinsed with warm PBS and stained with CYTO-ID® 1.0 Autophagy reagent (Enzo ENZ-51031-0050) and counterstained with DAPI. Cells were imaged using Cytation 5 imager (Biotek Inc, Winooski, Vt.) using GFP and DAPI filter sets. For % autophagic cells calculations cell counts were conducted using DAPI-stained nuclei and Object Sum Area value was obtained from at least 1,000 cells/well using DAPI channels. To obtain number of cells undergoing autophagy the cell count was conducted using GFP channel. Both GFP and DAPI cell counts were conducted using optimized algorithm in automatic mode. 8 replicate wells were used. % autophagic cells was calculated using Equation 1:% autophagic cells=100%*(number of cells, GFP channenumber of cells, DAPI channel)
To calculate staining intensity, the Object Sum Area value from GFP channel was obtained and divided by number of cells using DAPI channel. Both GFP and DAPI cell counts were conducted using optimized algorithm in automatic mode. 3 replicate wells were used.

The test system of experiment [5] is WM266-4 cells. Briefly: Cell staining with dansylated derivatives of 2155-14. To be noted: 100 μM. It is filed as cell-based, human. The procedure: WM266-4 cells were seeded at 10,000 cells/well in 0.1 mL of E-MEM medium supplemented with 10% FBS and 1% penicillin/streptomycin in 96 well plates (Greiner Bio-One CellStar cat #655180) and allowed to adhere overnight. After overnight incubation cells were stained with 100 μM of fluorescent analogs of 2155-14 for various length of time, and rinsed with warm PBS. Cells were imaged using Cytation 5 imager (Biotek Inc, Winooski, Vt.) using custom filter set: λexcitation=377/50 and λemission=542/27 nm.

In another experiment the test system is PC-3 cells. To be noted: read-out: IC50, apoptotic cell death of PC-3 cells; cited from earlier work.
Another experiment deals with T1, DDX1 (Homo sapiens, UniProt Q92499).
T1 construct: WM-266-4 and M14 cells were sonicated in RIPA lysis buffer; endogenous in cells; host or cells: WM266-4 (and M14) melanoma cells and lysates
Briefly: Pull-down with biotinylated analogs, western blot. The experiment is classed as binding. Conditions: WM266-4 lysates. The procedure: WM-266-4 and M14 cells were sonicated in RIPA lysis buffer containing added protease inhibitors. Affinity beads were prepared by addition of the 0.3 mg biotinylated probes to the 50 μL of streptavidin agarose resin, which was washed three times with the lysis buffer. Following incubation at 4° C. for 1 h, the obtained affinity beads complexed with biotinylated compounds were washed three times with lysis buffer to remove any unbound materials. The cell lysates (1 mg protein content) were then added to the probe-bound beads, and samples were incubated at 4° C. for 1 h and overnight on a rotator. Following 5 washes with lysis buffer, the samples were subjected to SDS-PAGE. The gels were stained overnight with colloidal blue (Invitrogen). […]
WM-266-4 cells were sonicated in RIPA lysis buffer containing protease inhibitors. […] Following 5 washes with lysis buffer, the protein isolates were subjected to SDS-PAGE followed by transfer to nitrocellulose membrane. hnRNP H2 was detected using rabbit polyclonal antibody (Abgent #: AP13497b; 1:3,000, in 2% milk overnight), DDX1 monoclonal antibody (Santa Cruz #sc-271393, 1:1,000 in 2% BSA overnight), or hnRNP B1/A2 monoclonal antibody (Santa Cruz #SC-32316, 1:1,000 in 2% BSA overnight). […] ImageJ software (NIH, Bethesda, Md.) was used to quantify the intensity of proteins bands. […]

In the next experiment the test system is lamin A/C. Briefly: Pull-down with biotinylated analogs. Conditions: WM266-4 lysates. The experiment is classed as binding, human. On the procedure: as §1

Entries after “also recorded” stand apart in the source; their conditions may differ.

T1 sequence (Q92499 whole entry): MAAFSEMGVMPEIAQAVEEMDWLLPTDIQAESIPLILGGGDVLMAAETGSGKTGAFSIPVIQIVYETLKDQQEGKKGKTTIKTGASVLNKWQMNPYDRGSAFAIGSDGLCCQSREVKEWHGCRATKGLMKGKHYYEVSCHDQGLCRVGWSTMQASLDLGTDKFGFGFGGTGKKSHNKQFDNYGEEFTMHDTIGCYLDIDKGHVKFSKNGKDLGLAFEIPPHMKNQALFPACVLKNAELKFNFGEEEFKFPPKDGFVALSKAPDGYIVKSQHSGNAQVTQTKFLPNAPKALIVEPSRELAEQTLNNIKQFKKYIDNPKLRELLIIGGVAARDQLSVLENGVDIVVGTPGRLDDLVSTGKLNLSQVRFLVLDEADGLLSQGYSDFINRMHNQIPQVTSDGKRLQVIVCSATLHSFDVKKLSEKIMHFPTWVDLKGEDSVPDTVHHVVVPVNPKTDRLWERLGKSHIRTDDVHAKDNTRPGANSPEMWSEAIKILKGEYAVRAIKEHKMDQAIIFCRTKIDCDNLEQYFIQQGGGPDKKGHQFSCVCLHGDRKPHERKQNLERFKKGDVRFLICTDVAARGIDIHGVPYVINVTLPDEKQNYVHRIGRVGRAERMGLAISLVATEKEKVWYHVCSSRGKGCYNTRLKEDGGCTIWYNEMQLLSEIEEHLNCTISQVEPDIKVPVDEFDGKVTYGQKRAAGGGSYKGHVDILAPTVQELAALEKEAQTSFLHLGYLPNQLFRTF

With `C=CCNC1=C2C[C@@H](C)C[C@H](OC)[C@H](O)[C@@H](C)/C=C(\C)[C@H](OC(N)=O)[C@@H](OC)/C=C\C=C(/C)C(=O)NC(=CC1=O)C2=O` [Compound 17-AAG], in the experiment with HSP90, the “clinical outcome in patients carrying BRAF or NRAS mutation” value was “melanoma stabilization”.

On to `O=C(CCCC[C@@H]1SC[C@@H]2NC(=O)N[C@@H]21)NCCCC[C@H]1CNC(=O)C(=O)N1C[C@@H]1CCCN1C[C@@H](CC1CCCCC1)N1C[C@H](Cc2ccc(O)cc2)N(CCc2ccccc2)C(=O)C1=O` [Compound 2529-3, N-(4-((S)-1-(((S)-1-((R)-3-cyclohexyl-2-((S)-5-(4-hydroxybenzyl)-2,3-dioxo-4-phenethylpiperazin-1-yl)propyl)pyrrolidin-2-yl)methyl)-5,6-dioxopiperazin-2-yl)butyl)-5-((3aS,4S,6aR)-2-oxohexahydro-1H-thieno[3,4-d]imidazol-4-yl)pentanamide], for which the “LC3-II level” value in experiment [1] (100 μM, 24 h) is recorded as “did not significantly increase”. The “hnRNP H2 in pulldown, western blot” value in the experiment with hnRNP H2 was “two bands; also recorded: much less abundant”. In addition, the “hnRNP A2/B1 in pulldown, western blot” value with hnRNP A2/B1 is on record as “no bands were found”. In addition, in experiment [2], the “cleaved lamin A/C level” value is listed as “did not significantly increase; also recorded: had no effect on cleavage of lamin A/C”. The IC50 in the experiment on WM266-4 cells [3] (Homo sapiens) is more than 100 µM. Also, in the experiment on WM266-4 cells [3] (Homo sapiens, WM 266-4, 100 μM, read-out: maximal inhibition of cell viability), the cytotoxicity at 100 µM turned out to be 42%.

Take `CN(C)c1cccc2c(S(=O)(=O)NCCN3C(=O)C(=O)N([C@H](CC4CCCCC4)CN4CCC[C@H]4CN4C(=O)C(=O)NC[C@@H]4Cc4ccccc4)C[C@@H]3Cc3ccc(O)cc3)cccc12` [Compound 2476-67.2, N-(2-((S)-4-((R)-1-((S)-2-(((S)-6-benzyl-2,3-dioxopiperazin-1-yl)methyl)pyrrolidin-1-yl)-3-cyclohexylpropan-2-yl)-6-(4-hydroxybenzyl)-2,3-dioxopiperazin-1-yl)ethyl)-5-(dimethylamino)naphthalene-1-sulfonamide]: the “LC3-II level” value in [1] (2.5 μM, 24 hr) was “no cleavage of lamin A/C or increase of levels of LC3-II was detected”. The “LC3 western blot” value in [1] (5 μM, 24 hr) was “neither of LC3 isoforms nor actin were detected”. The “lamin A/C cleavage” value in [2] (2.5 μM, 24 hr) is given as “no cleavage of lamin A/C”. The “lamin A/C western blot” value in experiment [2] (5 μM, 24 hr) is “striking increase of cleaved lamin A/C”. For the same molecule, the “autophagosome dye staining” value in the experiment with WM266-4 cells [4] was “intensive green staining”. Besides, the “staining of cytoplasm” value in the experiment on WM266-4 cells [5] is given as “Diffuse staining of the cytoplasm”. Moreover, the “staining of nuclear envelope” value in the experiment with WM266-4 cells [5] (1 h up to 48 h) was “stains nuclear membrane in both WM266-4 and M14 cells”.

`O=c1c(O)c(-c2ccc(O)c(O)c2)oc2cc(O)cc(O)c12` [quercetin]: the IC50 in the experiment on PC-3 cells was 100 µM.

For the molecule `O=C(CCCC[C@H]1SC[C@H]2NC(=O)N[C@H]21)NCCCC[C@H]1CN([C@H](CC2CCCCC2)CN2CCC[C@H]2CN2C(=O)C(=O)NC[C@@H]2Cc2ccccc2)C(=O)C(=O)N1CCc1ccccc1` [Compound 2529-7, N-(4-((S)-4-((R)-1-((S)-2-(((S)-6-benzyl-2,3-dioxopiperazin-1-yl)methyl)pyrrolidin-1-yl)-3-cyclohexylpropan-2-yl)-5,6-dioxo-1-phenethylpiperazin-2-yl)butyl)-5-((3aR,4R,6aS)-2-oxohexahydro-1H-thieno[3,4-d]imidazol-4-yl)pentanamide], the “DDX1 in pulldown, western blot” value on DDX1 is “confirmed”. Moreover, in experiment [1] (100 μM, 24 h), the “LC3-II level” value is “increased LC3-II to the levels of 2155-14/2529-1; also recorded: effect on LC3-II levels similar to non-biotinylated 2155-14/2529-1”. For the same molecule, in the experiment with lamin A/C, the “lamin A/C interaction in pulldown” value is given as “lack of lamin A/C interaction”. Besides, in the experiment on hnRNP H2, the “hnRNP H2 in pulldown, western blot” value is recorded as “two bands”. For the same molecule, in the experiment with hnRNP A2/B1, the “hnRNP A2/B1 in pulldown, western blot” value is on record as “three bands”. Further, the “cleaved lamin A/C level” value in experiment [2] is on record as “failing to increase levels of cleaved lamin A/C; also recorded: had no effect on cleavage of lamin A/C; also recorded: did not induce cleavage of lamin A/C”. Also, the “inhibition of WM266-4 viability” value with WM266-4 cells [3] (100 μM) is “completely inhibited viability”. Besides, the IC50 in the experiment with WM266-4 cells [3] (Homo sapiens) was determined as 3.3 ± 0.5 µM.
